Data published in patent publication US10905139B2, “Refreshing beverage” (priority 2011, dated 2021).

Assays:
[1] = in vivo; cited from earlier work
[2] = in vivo; cited from earlier work; remark: listed apart in the source
[3] = tested on: cancer cells (in cancer tissue sections); settings: sugar as food substrate; cited from earlier work
[4] = tested on: cancer cells (in cancer tissue sections); assay: fermentation metabolism of cancer cells with different sugars as food substrate (Warburg); type: cell-based; settings: sugar as food substrate
Description: On the other hand, tests carried out by the Nobel prizewinner Otto Heinrich Warburg have shown that the fermentation metabolism of cancer cells (in cancer tissue sections) progresses most effectively with glucose as a food substrate, specifically at a rate of 23.9 consumed units per unit of time, whereas, with the substrate fructose, it progresses less effectively by a factor of 7 (rate 3.3), and, with galactose, progresses even less effectively by a factor of 18 (rate 1.3). […] Galactose should therefore be a key sugar source in the diet of cancer patients.

Structure (SMILES) | glycemic index (GI) [1] | extent digested directly by the human body [2] | remaining fraction broken down by the intestinal flora [2] | rate of fermentation metabolism [3] | factor by which fermentation progresses less effectively than with glucose [4]
O=C[C@H](O)[C@H](O)[C@H](O)CO [Ribose] | negative | – | – | – | –
O=C(CO)[C@@H](O)[C@@H](O)[C@H](O)CO [Tagatose] | 3 | approximately 20% | 80% | – | –
O=C(CO)[C@@H](O)[C@H](O)[C@H](O)CO [fructose, reference compound] | – | – | – | 3.3 consumed units per unit of time | 7
O=C[C@H](O)[C@@H](O)[C@@H](O)[C@H](O)CO [galactose] | 20 | – | – | 1.3 consumed units per unit of time | 18
O=C[C@H](O)[C@@H](O)[C@H](O)[C@H](O)CO [glucose, reference compound] | 100 | – | – | 23.9 consumed units per unit of time | –
OC[C@H]1O[C@H](OC[C@H]2OC(O)(CO)[C@@H](O)[C@@H]2O)[C@H](O)[C@@H](O)[C@@H]1O (some centres unmarked) [isomaltulose] | 32 | – | – | – | –
OC[C@H]1O[C@@](CO)(O[C@H]2O[C@H](CO)[C@@H](O)[C@H](O)[C@H]2O)[C@@H](O)[C@@H]1O [sucrose, reference compound] | 65 | – | – | – | –
OC[C@H]1O[C@H](O[C@H]2O[C@H](CO)[C@@H](O)[C@H](O)[C@H]2O)[C@H](O)[C@@H](O)[C@@H]1O [trehalose] | ~32 | – | – | – | –
